Test results published in patent US10316017B2, “COT modulators and methods of use thereof” (Gilead Sciences, Inc., priority 2015, dated 2019).
pEC50, pIC50: −log10 of the molar value.

Tests used:
[1] = biological target: T1, human Cot catalytic domain (30-397 amino acids) (Homo sapiens, UniProt P41279); experiment: High Throughput Cot Biochemical Assay (KinEASE TR-FRET); conditions: Cot biochemical HTRF (KinEASE TR-FRET) assay; read-out: IC50 HTRF
T1 construct: Purified recombinant human Cot catalytic domain (30-397 amino acids) was purchased from Cama Biosciences; purchased Cama Biosciences (so in the source)
T1 sequence (P41279 30-397): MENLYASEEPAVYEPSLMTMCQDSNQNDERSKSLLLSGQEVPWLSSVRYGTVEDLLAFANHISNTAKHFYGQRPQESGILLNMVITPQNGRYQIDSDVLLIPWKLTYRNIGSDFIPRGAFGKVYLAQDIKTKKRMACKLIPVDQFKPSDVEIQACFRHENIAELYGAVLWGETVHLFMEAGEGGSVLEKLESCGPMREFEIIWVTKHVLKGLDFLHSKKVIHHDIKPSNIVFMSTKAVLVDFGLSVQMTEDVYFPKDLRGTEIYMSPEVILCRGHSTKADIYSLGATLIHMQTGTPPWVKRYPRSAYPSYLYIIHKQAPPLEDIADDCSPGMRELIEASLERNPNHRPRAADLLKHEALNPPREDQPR
Procedure, shortened: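 TR-FRET (KinEASE) read-out: Eu-labelled phospho-specific antibody binds XL665-tagged STK3 peptide (1 μM) phosphorylated by 5 nM human Cot kinase domain (residues 30-397). Reaction at 400 μM ATP, pH 7.0 MOPS buffer with 10 mM MgOAc, 1 mM DTT and 0.1% DMSO.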

[2] = test system: TNFα production in LPS-stimulated human monocytes; experiment: Cot Monocyte TNFα Cell Based Assay; conditions: Homo sapiens, Monocyte, TNFα in LPS-stimulated human monocytes; read-out: EC50 TNF
Procedure, shortened: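 TNFα release quantified by two-antibody TR-FRET, normalised to unstimulated (0%) and LPS-stimulated (100%) wells. Cells got a 1 h compound exposure at 37° C in 0.5% DMSO before 4 h challenge with 50 pg/ml LPS, at 5,000 cells/well.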

SMILES	pIC50 [1]	pEC50 [2]
CC(C)(C)N1CCC(n2cc([C@@H](Nc3cc(Cl)c4ncc(C#N)c(Nc5c(F)cccc5F)c4c3)c3ccc(Cl)cc3)nn2)CC1 [Example 653, (S)-6-(((1-(1-(tert-butyl)piperidin-4-yl)-1H-1,2,3-triazol-4-yl)(4-chlorophenyl)methyl)amino)-8-chloro-4-((2,6-difluorophenyl)amino)quinoline-3-carbonitrile]	6.80	5.03
CC(C)(C)N1CCC(n2cc([C@@H](Nc3cc(Cl)c4ncc(C#N)c(Nc5ccc(OCc6ccccc6)c(Cl)c5)c4c3)c3ccc(Cl)cc3)nn2)CC1 [Example 654, (S)-4-((4-(benzyloxy)-3-chlorophenyl)amino)-6-(((1-(1-(tert-butyl)piperidin-4-yl)-1H-1,2,3-triazol-4-yl)(4-chlorophenyl)methyl)amino)-8-chloroquinoline-3-carbonitrile]	5.69	< 4.30
CCOc1ccc(Nc2c(C#N)cnc3c(Cl)cc(N[C@@H](c4ccc(Cl)cc4)c4cn(C5CCN(C(C)(C)C)CC5)nn4)cc23)cc1Cl [Example 655, (S)-6-(((1-(1-(tert-butyl)piperidin-4-yl)-1H-1,2,3-triazol-4-yl)(4-chlorophenyl)methyl)amino)-8-chloro-4-((3-chloro-4-ethoxyphenyl)amino)quinoline-3-carbonitrile]	6.49	4.98
C[C@@H](Nc1c(C#N)cnc2c(Cl)cc(N[C@@H](c3ccccc3)c3c[nH]nn3)cc12)c1ccccc1 [Example 656, 8-chloro-6-(((S)-phenyl(1H-1,2,3-triazol-4-yl)methyl)amino)-4-(((R)-1-phenylethyl)amino) quinoline-3-carbonitrile]	7.41	5.74
C[C@@H](Nc1c(C#N)cnc2c(Cl)cc(N[C@@H](c3ccc(Cl)cc3)c3c[nH]nn3)cc12)c1ccccc1 [Example 657, 8-chloro-6-(((S)-(4-chlorophenyl)(1H-1,2,3-triazol-4-yl)methyl)amino)-4-(((R)-1-phenylethyl)amino)quinoline-3-carbonitrile]	6.84	5.60
C[C@H](CNc1c(C#N)cnc2c(Cl)cc(N[C@@H](c3ccc(Cl)cc3)c3cn(C4CCN(C(C)(C)C)CC4)nn3)cc12)c1ccccc1 [Example 658, 6-(((S)-(1-(1-(tert-butyl)piperidin-4-yl)-1H-1,2,3-triazol-4-yl)(4-chlorophenyl)methyl)amino)-8-chloro-4-(((S)-2-phenylpropyl)amino)quinoline-3-carbonitrile]	7.57	4.91
C[C@@H](CNc1c(C#N)cnc2c(Cl)cc(N[C@@H](c3ccc(Cl)cc3)c3cn(C4CCN(C(C)(C)C)CC4)nn3)cc12)c1ccccc1 [Example 659, 6-(((S)-(1-(1-(tert-butyl)piperidin-4-yl)-1H-1,2,3-triazol-4-yl)(4-chlorophenyl)methyl)amino)-8-chloro-4-(((R)-2-phenylpropyl)amino)quinoline-3-carbonitrile]	7.02	5.27
CC(C)(C)N1CCC(n2cc([C@@H](Nc3cc(Cl)c4ncc(C#N)c(Nc5cnc(F)c(F)c5)c4c3)c3ccc(Cl)cc3)nn2)CC1 [Example 660, (S)-6-(((1-(1-(tert-butyl)piperidin-4-yl)-1H-1,2,3-triazol-4-yl)(4-chlorophenyl)methyl)amino)-8-chloro-4-((5,6-difluoropyridin-3-yl)amino)quinoline-3-carbonitrile]	7.85	6.09
CC(C)(C)N1CCC(n2cc([C@@H](Nc3cc(Cl)c4ncc(C#N)c(NC5CCOCC5)c4c3)c3ccc(Cl)cc3)nn2)CC1 [Example 662, (S)-6-(((1-(1-(tert-butyl)piperidin-4-yl)-1H-1,2,3-triazol-4-yl)(4-chlorophenyl)methyl)amino)-8-chloro-4-((tetrahydro-2H-pyran-4-yl)amino)quinoline-3-carbonitrile]	7.15	5.90
CC1(Nc2c(C#N)cnc3c(Cl)cc(N[C@@H](c4ccc(Cl)cc4)c4cn(C5CCN(C(C)(C)C)CC5)nn4)cc23)CCCCC1 [Example 663, (S)-6-(((1-(1-(tert-butyl)piperidin-4-yl)-1H-1,2,3-triazol-4-yl)(4-chlorophenyl)methyl)amino)-8-chloro-4-((1-methylcyclohexyl)amino) quinoline-3-carbonitrile]	7.14	5.32
CC(C)(C)N1CCC(n2cc([C@@H](Nc3cc(Cl)c4ncc(C#N)c(Nc5cc(Cl)c(Cl)cc5F)c4c3)c3ccc(Cl)cc3)nn2)CC1 [Example 664, (S)-6-(((1-(1-(tert-butyl)piperidin-4-yl)-1H-1,2,3-triazol-4-yl)(4-chlorophenyl)methyl)amino)-8-chloro-4-((4,5-dichloro-2-fluorophenyl)amino)quinoline-3-carbonitrile]	6.42	5.09
N#Cc1cnc2c(Cl)cc(N[C@@H](c3ccccc3)c3cn(CCCF)nn3)cc2c1Nc1ccc(F)c(Cl)c1 [Example 666, (S)-8-chloro-4-((3-chloro-4-fluorophenyl)amino)-6-(((1-(3-fluoropropyl)-1H-1,2,3-triazol-4-yl)(phenyl)methyl)amino) quinoline-3-carbonitrile]	7.85	6.34
N#Cc1cnc2c(Cl)cc(N[C@@H](c3ccccc3)c3c[nH]nn3)cc2c1Nc1ccc(F)c(Cl)c1 [Example 667, (S)-8-chloro-4-((3-chloro-4-fluorophenyl)amino)-6-((phenyl(1H-1,2,3-triazol-4-yl)methyl)amino)quinoline-3-carbonitrile]	7.55	6.05
CC(C)(C)C(=O)OCn1cc([C@@H](Nc2cc(Cl)c3ncc(C#N)c(Nc4ccc(F)c(Cl)c4)c3c2)c2ccccc2)nn1 [Example 668, (S)-(4-(((8-chloro-4-((3-chloro-4-fluorophenyl)amino)-3-cyanoquinolin-6-yl)amino)(phenyl)methyl)-1H-1,2,3-triazol-1-yl)methyl pivalate]	7.01	5.79
N#Cc1cnc2c(Cl)cc(N[C@@H](c3ccccc3)c3cn(CC(F)F)nn3)cc2c1Nc1ccc(F)c(Cl)c1 [Example 669, (S)-8-chloro-4-((3-chloro-4-fluorophenyl)amino)-6-(((1-(2,2-difluoroethyl)-1H-1,2,3-triazol-4-yl)(phenyl)methyl)amino) quinoline-3-carbonitrile]	7.41	5.96
CC(C)(C)C(=O)c1cccc([C@H](Nc2cc(Cl)c3ncc(C#N)c(Nc4ccc(F)c(Cl)c4)c3c2)c2cn(C3CCN(C(C)(C)C)CC3)nn2)c1 [Example 671, (S)-6-(((1-(1-(tert-butyl)piperidin-4-yl)-1H-1,2,3-triazol-4-yl)(3-pivaloylphenyl)methyl)amino)-8-chloro-4-((3-chloro-4-fluorophenyl)amino)quinoline-3-carbonitrile]	8.00	6.17
CC(C)(C)C(O)c1cccc([C@H](Nc2cc(Cl)c3ncc(C#N)c(Nc4ccc(F)c(Cl)c4)c3c2)c2cn(C3CCN(C(C)(C)C)CC3)nn2)c1 (stereo partly drawn) [Example 672, 6-(((1S)-(1-(1-(tert-butyl)piperidin-4-yl)-1H-1,2,3-triazol-4-yl)(3-(1-hydroxy-2,2-dimethylpropyl)phenyl)methyl)amino)-8-chloro-4-((3-chloro-4-fluorophenyl)amino)quinoline-3-carbonitrile]	7.49	6.05
CC(C)(C)N1CCC(n2cc([C@@H](Nc3cc(Cl)c4ncc(C#N)c(Nc5ccc(F)c(Cl)c5)c4c3)c3cccc(C(N)=O)c3)nn2)CC1 [Example 673, (S)-3-((1-(1-(tert-butyl)piperidin-4-yl)-1H-1,2,3-triazol-4-yl)((8-chloro-4-((3-chloro-4-fluorophenyl)amino)-3-cyanoquinolin-6-yl)amino)methyl)benzamide]	8.70	5.81
CCN(C)C(=O)c1cccc([C@H](Nc2cc(Cl)c3ncc(C#N)c(Nc4ccc(F)c(Cl)c4)c3c2)c2cn(C3CCN(C(C)(C)C)CC3)nn2)c1 [Example 674, (S)-3-((1-(1-(tert-butyl)piperidin-4-yl)-1H-1,2,3-triazol-4-yl)((8-chloro-4-((3-chloro-4-fluorophenyl)amino)-3-cyanoquinolin-6-yl)amino)methyl)-N-ethyl-N-methylbenzamide]	8.52	6.50
CC(C)(C)N1CCC(n2cc([C@@H](Nc3cc(Cl)c4ncc(C#N)c(Nc5ccc(F)c(Cl)c5)c4c3)c3cccc(C(=O)N4CCC4)c3)nn2)CC1 [Example 675, (S)-6-(((3-(azetidine-1-carbonyl)phenyl)(1-(1-(tert-butyl)piperidin-4-yl)-1H-1,2,3-triazol-4-yl)methyl)amino)-8-chloro-4-((3-chloro-4-fluorophenyl)amino)quinoline-3-carbonitrile]	9.00	7.09
CC(C)(C)N1CCC(n2cc([C@@H](Nc3cc(Cl)c4ncc(C#N)c(Nc5ccc(F)c(Cl)c5)c4c3)c3cccc(C(=O)N4CCCCC4)c3)nn2)CC1 [Example 676, (S)-6-(((1-(1-(tert-butyl)piperidin-4-yl)-1H-1,2,3-triazol-4-yl)(3-(piperidine-1-carbonyl)phenyl)methyl)amino)-8-chloro-4-((3-chloro-4-fluorophenyl)amino)quinoline-3-carbonitrile]	8.22	6.36
